Data set [1] concerns the target T1, sweet taste receptors T1R2/T1R3 (Homo sapiens, UniProt Q7RTX0+Q8TE23).
T1 construct: receptor internalization assay (“Ring Assay”) on an H716 cell line; endogenous in cells; host or cells: H716 cell line
T1 sequence (Q8TE23 20-839): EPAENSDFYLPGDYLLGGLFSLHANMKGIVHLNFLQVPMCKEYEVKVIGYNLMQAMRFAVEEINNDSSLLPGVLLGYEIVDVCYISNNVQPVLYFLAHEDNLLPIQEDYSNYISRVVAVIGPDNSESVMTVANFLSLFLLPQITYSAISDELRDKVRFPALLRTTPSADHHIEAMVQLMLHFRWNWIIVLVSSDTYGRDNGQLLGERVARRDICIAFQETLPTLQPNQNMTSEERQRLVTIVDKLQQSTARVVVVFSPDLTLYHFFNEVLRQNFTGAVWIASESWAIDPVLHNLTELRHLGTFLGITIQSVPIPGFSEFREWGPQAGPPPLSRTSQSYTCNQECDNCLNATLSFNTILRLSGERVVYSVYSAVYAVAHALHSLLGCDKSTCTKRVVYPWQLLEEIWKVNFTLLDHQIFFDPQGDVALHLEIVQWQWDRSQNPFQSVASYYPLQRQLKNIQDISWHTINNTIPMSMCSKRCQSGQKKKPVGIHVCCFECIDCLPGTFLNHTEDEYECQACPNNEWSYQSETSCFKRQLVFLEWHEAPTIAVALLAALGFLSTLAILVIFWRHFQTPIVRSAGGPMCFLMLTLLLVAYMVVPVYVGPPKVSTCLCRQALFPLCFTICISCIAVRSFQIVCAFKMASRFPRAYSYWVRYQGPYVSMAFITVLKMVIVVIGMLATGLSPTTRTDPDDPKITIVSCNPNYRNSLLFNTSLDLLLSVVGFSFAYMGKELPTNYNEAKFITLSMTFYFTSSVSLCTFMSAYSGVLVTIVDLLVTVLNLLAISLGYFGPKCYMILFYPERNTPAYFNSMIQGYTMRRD
T1 sequence (Q7RTX0 21-852): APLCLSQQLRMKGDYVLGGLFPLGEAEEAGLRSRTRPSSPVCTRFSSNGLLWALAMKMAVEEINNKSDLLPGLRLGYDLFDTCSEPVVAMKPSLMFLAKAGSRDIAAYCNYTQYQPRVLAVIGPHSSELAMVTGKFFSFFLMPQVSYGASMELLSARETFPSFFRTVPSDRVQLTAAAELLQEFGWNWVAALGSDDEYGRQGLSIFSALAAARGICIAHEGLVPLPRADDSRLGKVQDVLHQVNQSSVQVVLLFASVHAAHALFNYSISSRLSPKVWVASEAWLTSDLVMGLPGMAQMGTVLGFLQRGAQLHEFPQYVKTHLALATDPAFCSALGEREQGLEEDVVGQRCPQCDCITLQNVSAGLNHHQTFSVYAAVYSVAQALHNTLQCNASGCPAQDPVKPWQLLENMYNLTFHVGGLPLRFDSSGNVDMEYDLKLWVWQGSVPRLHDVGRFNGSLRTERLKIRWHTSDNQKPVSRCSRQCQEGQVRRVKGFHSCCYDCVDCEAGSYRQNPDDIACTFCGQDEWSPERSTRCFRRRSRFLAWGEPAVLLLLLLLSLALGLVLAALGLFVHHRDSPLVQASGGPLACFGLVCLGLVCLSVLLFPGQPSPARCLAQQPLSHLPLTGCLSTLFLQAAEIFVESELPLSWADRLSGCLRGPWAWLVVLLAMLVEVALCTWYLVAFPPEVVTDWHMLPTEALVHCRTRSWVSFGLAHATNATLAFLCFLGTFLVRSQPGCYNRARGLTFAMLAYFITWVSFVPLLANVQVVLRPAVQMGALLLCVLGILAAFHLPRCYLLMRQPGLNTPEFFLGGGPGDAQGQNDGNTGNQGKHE
The experiment in a line: Taste receptor internalization assay (Ring Assay), sweet. The format is cell-based. The settings on record: for EC50 value, sweet receptor dose response: combined with the stevia blend 4, Example 15; for slope of the dose response curve: with the stevia 4 blend, individual compound vs the combination of compounds 1 and 10, FIGS. 51, 52, 55. On the procedure: (§1) The control samples and samples I-X were tested for their ability to activate sweet taste receptors T1R2/T1R3, GLUT4, and Glucagon and bitter taste receptors T2R using a taste receptor internalization assay. Receptor activation and internalization was measured using images acquired by an IMAGEXPRESS Micro automated epifluorescence microscope (Molecular Devices Corporation). The images were analyzed with METAXPRESS 5.1 Workstation software, utilizing the Multiwaves Translocation Scoring analysis algorithm for nuclear and cytoplasmic segmentation. Curve fitting and parameter estimation were then analyzed with TIBCO SPOTFIRE.
(§2) Taste Receptor Internalization General Procedure:
The two control samples and Samples I-X were each serially diluted eight times at a ratio of […] in water (1 part sample to 2 parts water) and dose response was determined by conducting a receptor internalization assay (“Ring Assay”) on an H716 cell line with an HCI platform using the methods disclosed in PCT Patent Application Publication No. WO 2014/183041. Receptor internalization was measured at 5 and 15 minutes. EC50 values and Maximum-Minimum (“Max-Min”) values were calculated using SPOTFIRE software. Sweet, aftertaste, glucagon, and bitterness scoring were calculated using analysis of variance (ANOVA). A median value was then calculated by dividing the Max-Min value by the EC50 value for all time points. The median values, which represent receptor activity, were then plotted on radar graphs, as shown in FIGS. 9A-9B, 10A-10B, 11A-11B, 12A-12B, 13, 14A-14B, 15A-15B, 16A-16B, 17A-17B, 18A-18B, and 19.
Several sets of aqueous samples were prepared to study the dose response for the sweet taste receptors. One set of samples was prepared by adding the stevia blend 4 (1.3 wt % rebaudioside D and 6.7 wt % SG95) to water and adding 0.32 wt % potassium sorbate. Malic acid was added to the solution until the pH was 3.5. Eleven sets of aqueous samples were prepared by separately combining the same stevia 4 blend with either 2-methylbutanol or one of the compounds listed in Table 4. Another set of samples was prepared by adding sugar to water. Four additional sets of aqueous samples were prepared by separately combining each of the stevia blend 4, above, and sugar with either compounds 1 and 10 or compounds 2, 6, and 10 from Table 4. One final set of aqueous samples was prepared by combining the stevia blend 4, above, with compounds 1, 2, 3, and 10 from Table 4. Each set of samples were serially diluted and had concentrations ranging from about 0.001 nM to about 100 μM.
The aqueous samples were tested at varying concentrations for their ability to activate the sweet taste receptors in accordance with the procedures described in Example 8. Dose response curves were generated for the stevia 4 blend, sugar, and each compound-stevia 4 blend combination.

The subject of data set [2] is bitter taste receptors T2R. The experiment in a line: Taste receptor internalization assay (Ring Assay), bitter. It counts as cell-based. On the procedure:
as §1, §2
(§3) The two control samples and Samples I-X were each serially diluted eight times at a ratio of 1:1 in water (1 part sample to 2 parts water) and dose response was determined by conducting a receptor internalization assay (“Ring Assay”) on an H716 cell line with an HCI platform using the methods disclosed in PCT Patent Application Publication No. WO 2014/183041. Receptor internalization was measured at 5 and 15 minutes. EC50 values and Maximum-Minimum (“Max-Min”) values were calculated using SPOTFIRE software. Sweet, aftertaste, glucagon, and bitterness scoring were calculated using analysis of variance (ANOVA). A median value was then calculated by dividing the Max-Min value by the EC50 value for all time points. […]

Another data set relates to Glucagon. The experiment in a line: Taste receptor internalization assay (Ring Assay), glucagon. It counts as cell-based. The settings on record: added to 8% stevia blend 3 base solution; compared to the sample with compound 2. On the procedure:
as §1, §2, §3

Data set [3] deals with sweet taste receptors T1R2/T1R3, GLUT4, and Glucagon and bitter taste receptors T2R. The experiment in a line: Taste receptor internalization assay, overall receptor response profile. The format is cell-based. The settings on record: Sample X vs Sample IX; FIG. 10A. On the procedure: as §1, §2, §3
The conditions of data set [4]: compared with other steviol glycosides; cited from earlier work.
The conditions of data set [5]: compared with Rebaudioside A; cited from earlier work.
Where [6] appears, read: added to 0.2% stevia blend 3 base solution, Example 11.
Setting [7] is: added to 8 wt % stevia blend 3 base solution, Examples 10 and 11.

Here are results for five molecules from patent US11751586B2, “Compositions and methods for improving taste of non-nutritive sweeteners” (PEPSICO, INC., priority 2016, dated 2023).

Each structure is given as a SMILES string. Entries after “also recorded” stand apart in the source; their conditions may differ.

Regarding `CCCC[C@@H]1OC(=O)C[C@H]1C` (relative stereo) [Compound 10, Trans-4-Methyl-5-butyldihydro-2(3H)-furanone], in data set [1], the “EC50 value, sweet receptor dose response” value is recorded as “smaller” and the “slope of the dose response curve” value is “smaller”.

For the molecule `CCC(C)CO` (centres unmarked) [2-methylbutanol], the bitterness receptor response result in data set [2] (setting [6]) was “high sweet and bitterness”; in data set [2] (setting [7]), “no bitterness”. Moreover, the sweet receptor response result in data set [1] (setting [6]) is listed as “high sweet”. Besides, in data set [1] (setting [7]), the “sweetness (sweet receptor) response” value is recorded as “low sweet; also recorded: significantly lower”. In the data set on Glucagon, the glucagon receptor response entry is given as “significantly lower”.

As for `CCCCOC(C)=O` [Compound 1, Butyl Acetate], in data set [1], the “EC50 value, sweet receptor dose response” value is listed as “smaller” and the “slope of the dose response curve” value is listed as “smaller”.

Turning to `CC(C)CCO` [Compound 2, 3-Methylbutanol], in data set [1], the “EC50 value, sweet receptor dose response” value is on record as “low”. The taste modulator classification result in data set [1] (for the stevia 4 blend, FIG. 57) is reported as “sweet enhancer”. Moreover, the “effect on the taste profile of stevia” value in data set [3] is listed as “sweet/glucagon enhancer”.

On to `C=C1C[C@@]23CC[C@H]4[C@@](C)(CCC[C@@]4(C)C(=O)O[C@@H]4O[C@H](CO)[C@@H](O)[C@H](O)[C@H]4O[C@@H]4O[C@H](CO)[C@@H](O)[C@H](O)[C@H]4O)[C@@H]2CC[C@]1(O[C@@H]1O[C@H](CO)[C@@H](O)[C@H](O[C@@H]2O[C@H](CO)[C@@H](O)[C@H](O)[C@H]2O)[C@H]1O[C@@H]1O[C@H](CO)[C@@H](O)[C@H](O)[C@H]1O)C3` [Rebaudioside D], for which the taste profile entry in data set [4] was “almost lacking the bitterness and lingering licorice aftertaste”. The water solubility result in data set [5] is on record as “less water soluble than Rebaudioside A”.
